Test results published in patent US20080220444A1, “Bone Marrow Proliferation Assay” (priority 2003, published 2008).

How the values were obtained:
human bone marrow cells [1] = assay: Traditional CFU-GM colony-forming assay (myelotoxicity); type: cell-based
Description: Bone marrow was enriched after ficoll hypaque density centrifugation. 1×10^5 bone marrow cells per dish, containing METHOCULT GF H4534 (1% methylcellulose, 30% FBS, 1% BSA, 10^-4 M 2-ME, 2 mM L-gln, 50 ng/mL recombinant human (rh) stem cell factor (SCF), 10 ng/mL rh granulocyte/macrophage-colony stimulating factor (GM-CSF), and 10 ng/mL rh interleukin-3 (IL-3). METHOCULT was obtained from StemCell Technologies (Vancouver, BC, Canada). Cultures were treated with various concentrations of test compounds for the entire culture period. Cultures were performed in duplicate and were incubated for ˜14 days at 37° C. in 5% CO2 and scored for colony growth (colony-forming units-granulocyte/macrophage, or CFU-GM) with a phase-contrast inverted microscope. Colonies containing >50 cells were considered positive.

human bone marrow cells [2] = assay: Bone marrow proliferation assay (3H-thymidine uptake, cytokine-activated cells); type: cell-based; conditions: Bone marrow cell; for IC50: concentration inhibiting proliferation by 50%
Description: Bone marrow (BM) was obtained from human donors, collected in Dulbecco's phosphate buffered saline (DPBS) containing 200 units/mL of heparin. The BM cells were then processed as described below. ROSETTESEP™ cocktail was added to the BM cells at a ratio of 50 μL of cocktail per 1 mL of cells in a test tube and the tubes were mixed well by repeated inversion. This mixture was then incubated at room temperature for approximately 20 minutes. A mixture containing PBS/2% FBS/1 mM EDTA was prepared and the BM sample was mixed in a 1:2 ratio (e.g., 10 mL marrow+20 mL PBS/2% FBS/1 mM EDTA) and gently mixed by inversion. […] Cells were counted and viability checked and cells were adjusted to 5×10^5/mL in complete medium containing the following human recombinant growth factors/cytokines at the indicated final concentrations (cytokines may be obtained from various sources; those from StemCell Technologies were used herein): • Stem Cell Factor (50 ng/mL) • GM-CSF (20 ng/mL) • IL-3 (20 ng/mL) • IL-6 (20 ng/mL) • G-CSF (20 ng/mL)
Flat-bottom microtiter tissue culture plates (96 well) were used for the assay. Cells were placed in wells so that each well contained 5×10^4 cells. Typically, cultures were performed in triplicate wells. Wells were brought to a final volume of 200 μL with either complete medium or various concentrations of test compounds, which were diluted in complete medium. Plates were covered with plastic wrap (to reduce evaporation) and placed in a humidified 5% CO2 incubator at 37° C. for 3 days.

[3] = CFU-GM, 336 h, CFU-GM, concentration inhibiting colony growth by 50%, linear regression, ~14 days, mean +/- spread
[4] = CFU-GM, 336 h, CFU-GM, concentration inhibiting colony growth by 90%, linear regression, ~14 days, mean +/- spread
[5] = 72 h, Prolif., linear regression, 3 days, mean +/- spread
[6] = Bone marrow cell, Colony-forming Assay, intra-assay variation, equal to the mean of the five determinations
[7] = Bone marrow cell, Colony-forming Assay, intra-assay variation, individual determinations
[8] = 72 h, Prolif., concentration inhibiting proliferation by 90%, linear regression, 3 days, mean +/- spread, read-out: IC90

| SMILES | IC50 (human bone marrow cells [1]; [3]) | IC90 (human bone marrow cells [1]; [4]) | IC90 (human bone marrow cells [2]; 72 h) | IC50 (human bone marrow cells [2]; [5]) | IC50 (human bone marrow cells [1]; [6]) | IC90 (human bone marrow cells [1]; [6]) | IC50 (human bone marrow cells [1]; [7]) | IC90 (human bone marrow cells [1]; [7]) | IC90 (human bone marrow cells [2]; [8]) | IC90 (human bone marrow cells [2]; Proliferation Assay, intra-assay variation, equal to the mean of the five determinations, read-out: IC90) | IC90 (human bone marrow cells [2]; Proliferation Assay, intra-assay variation, individual determinations, read-out: IC90) |
| --- | --- | --- | --- | --- | --- | --- | --- | --- | --- | --- | --- |
| Cc1cn([C@H]2C[C@H](N=[N+]=[N-])[C@@H](CO)O2)c(=O)[nH]c1=O [AZT, 3′-azido-3′-deoxythymidine] | 34.5 µM | 387 µM | 146 µM | 17.1 µM | – | – | – | – | – | – | – |
| COc1cccc2c1C(=O)c1c(O)c3c(c(O)c1C2=O)C[C@@](O)(C(=O)CO)C[C@@H]3O[C@H]1C[C@H](N)[C@H](O)[C@H](C)O1 [Doxorubicin, doxorubicin] | 0.04 µM | 0.132 µM | – | – | 0.0291 µM | 0.0692 µM | 0.0342 µM | 0.0724 µM | 0.068 µM | 0.0702 µM | 0.0712 µM |
| Nc1ccn([C@@H]2O[C@H](CO)[C@@H](O)C2(F)F)c(=O)n1 [Gemcitabine, gemcitabine] | 0.0013 µM | 0.0042 µM | – | 0.0012 µM | – | – | – | – | 0.0044 µM | – | – |
| CC(=O)O[C@H]1C(=O)[C@@]2(C)[C@H]([C@H](OC(=O)c3ccccc3)[C@]3(O)C[C@H](OC(=O)[C@H](O)[C@@H](NC(=O)c4ccccc4)c4ccccc4)C(C)=C1C3(C)C)[C@]1(OC(C)=O)CO[C@@H]1C[C@@H]2O [Paclitaxel, paclitaxel] | 0.0034 µM | 0.006 µM | – | 0.0019 µM | – | – | – | – | 0.0049 µM | – | – |
| Nc1ccn([C@@H]2S[C@H](CO)[C@@H](O)[C@@H]2O)c(=O)n1 [Thio-ara-C, thio-ara-C] | 0.0403 µM | 0.122 µM | – | 0.075 µM | – | – | – | – | 0.301 µM | – | – |
